Assay results reported in patent publication US20020161528A1, “Tool for lipophilicity determination in drug discovery basic and neutral compounds” (Pfizer Inc., priority 2001, published 2002).
Where two headings read alike, the source gives them in different places.

How the values were obtained:
physchem = settings: pH 7.4
[1] = Table 1, capacity factor extrapolated to 0% methanol, average of three to five determinations, pH 7.4

Compound | log k′w [1] | chromatographic logD (physchem) | further results
CSc1ccc2c(c1)N(CCC1CCCCN1C)c1ccccc1S2 (stereo not drawn) [Thioridazine] | 2.88 | 3.45 | –
C[C@]12CCC(=O)C=C1CC[C@@H]1[C@@H]2[C@@H](O)C[C@@]2(C)[C@H]1CC[C@]2(O)C(=O)CO [Hydrocortisone] | – | 1.49 | –
CN(C)CCC(c1ccc(Cl)cc1)c1ccccn1 (stereo not drawn) [Chlorpheniramine] | 1.20 | – | –
NS(=O)(=O)c1cc(C2(O)NC(=O)c3ccccc32)ccc1Cl (stereo not drawn) [Chlorthalidone] | 0.76 | 1.06 | –
Cc1nc2n(c(=O)c1CCN1CCC(c3noc4cc(F)ccc34)CC1)CCCC2 [Risperidone] | 1.23 | 1.59 | Res (logDoct − ElogDoct) (Table 1): 0.45
Oc1cccc(Cl)c1 [3-Chlorophenol] | 2.58 | 3.11 | Res (logDoct − ElogDoct) (Table 1): −0.61
CN(C)CCCN1c2ccccc2CCc2ccccc21 [Imipramine] | 1.56 | – | –
CCOC(=O)C1=C(COCCN)NC(C)=C(C(=O)OC)C1c1ccccc1Cl (stereo not drawn) [Amlodipine] | – | 2.15 | –
c1ccc2ccccc2c1 [Naphthalene] | 3.03 | 3.62 | –
CC(=O)c1ccccc1 [Acetophenone] | 1.21 | 1.57 | –
O=C1Nc2ccc(Cl)cc2C(c2ccccc2Cl)=NC1O (stereo not drawn) [Lorazepam] | 2.30 | 2.8 | Res (logDoct − ElogDoct) (Table 1): −0.29
CCOC(=O)N1CCC(=C2c3ccc(Cl)cc3CCc3cccnc32)CC1 [Loratadine] | 4.02 | – | –
Nc1nc(N)c2nc(-c3ccccc3)c(N)nc2n1 [Triamterene] | 0.71 | 1.01 | –
C[C@]12CC[C@@H]3c4ccc(O)cc4CC[C@H]3[C@@H]1CC[C@@H]2O [Estradiol] | – | 3.9 | –
CN1CCN(C2=Nc3cc(Cl)ccc3Nc3ccccc32)CC1 [Clozapine] | – | 3.38 | –
C[C@]12C=CC(=O)C=C1CC[C@@H]1[C@@H]2C(=O)C[C@@]2(C)[C@H]1CC[C@]2(O)C(=O)CO [Prednisone] | 0.90 | 1.22 | –

Compound | log k′w [1] | chromatographic logD (physchem) | further results
CC(=O)Nc1ccc(O)cc1 [Acetominophen] | 0.15 | – | Res (logDoct − ElogDoct) (Table 1): 0.13; ElogDoct (Table 1, from log k′w by Equation 1, pH 7.4): 0.38
CCN(CC)CCNC(=O)c1ccc(N)cc1 [Procainamide] | −0.69 | -0.57 | –
CCCCc1oc2ccccc2c1C(=O)c1cc(I)c(OCCN(CC)CC)c(I)c1 [Amiodarone] | 5.10 | – | –
O=C(CCCN1CCC(O)(c2ccc(Cl)cc2)CC1)c1ccc(F)cc1 [Haloperidol] | 2.00 | 2.46 | –
C[C@]12C=CC(=O)C=C1CC[C@@H]1[C@@H]2[C@@H](O)C[C@@]2(C)[C@H]1CC[C@]2(O)C(=O)CO [Prednisolone] | 1.24 | 1.6 | –
CN1[C@@H]2CC[C@H]1C[C@@H](OC(=O)C(CO)c1ccccc1)C2 (stereo partly drawn) [Atropine] | – | – | log k′w (pH 7.4): −0.33
COCCc1ccc(OCC(O)CNC(C)C)cc1 (stereo not drawn) [Metoprolol] | −0.73 | -0.62 | –
CC(C)NCC(O)c1ccc(NS(C)(=O)=O)cc1 (stereo not drawn) [Sotalol] | −1.47 | -1.45 | –
CN(C)CCCN1c2ccccc2Sc2ccc(Cl)cc21 [Chlorpromazine] | 2.66 | 3.2 | –
CN1CC[C@]23c4c5ccc(O)c4O[C@H]2[C@@H](O)C=C[C@H]3[C@H]1C5.O=S(=O)(O)O [Morphine sulfate] | – | – | log k′w (pH 7.4): 0.10
CN(C)CCOC(c1ccccc1)c1ccccc1 [Diphenhydramine] | 1.04 | – | –
CCN(CC)CC(=O)Nc1c(C)cccc1C [Lidocaine] | 0.96 | – | –
COc1ccc2[nH]c([S+]([O-])Cc3ncc(C)c(OC)c3C)nc2c1 (stereo not drawn) [Omeprazole] | – | 2 | –
CN1C(=O)CN=C(c2ccccc2)c2cc(Cl)ccc21 [Diazepam] | – | – | log k′w (pH 7.4): 2.46
Cc1cccc(N(C)C(=S)Oc2ccc3ccccc3c2)c1 [Tolnaftate] | 4.53 | – | –
